Assay results as given in patent EP4588921A1, “FREE BASE CRYSTAL FORM OF POLYCYCLIC COMPOUND OF NITROGEN-CONTAINING HETEROCYCLE, AND PREPARATION METHOD THEREFOR” (Jiangsu Hansoh Pharmaceutical Group Co., Ltd., priority 2022, dated 2024).
Values after ≈ are worked out from the molar mass of the structure shown. Read-outs that look alike come from different tables or passages of the source.

Columns and labels:
[1] = target: T1, human OX1R (Homo sapiens, UniProt O43613); experiment: Calcium current (FLIPR) in cells stably expressing OX1 receptor; type: cell-based; settings: CHO-K1/human OX1R cells; agonist OX-A at EC80; FLIPR Tetra
T1 construct: expressed in transfected cells; host or cells: CHO-K1
T1 sequence (O43613 1-425): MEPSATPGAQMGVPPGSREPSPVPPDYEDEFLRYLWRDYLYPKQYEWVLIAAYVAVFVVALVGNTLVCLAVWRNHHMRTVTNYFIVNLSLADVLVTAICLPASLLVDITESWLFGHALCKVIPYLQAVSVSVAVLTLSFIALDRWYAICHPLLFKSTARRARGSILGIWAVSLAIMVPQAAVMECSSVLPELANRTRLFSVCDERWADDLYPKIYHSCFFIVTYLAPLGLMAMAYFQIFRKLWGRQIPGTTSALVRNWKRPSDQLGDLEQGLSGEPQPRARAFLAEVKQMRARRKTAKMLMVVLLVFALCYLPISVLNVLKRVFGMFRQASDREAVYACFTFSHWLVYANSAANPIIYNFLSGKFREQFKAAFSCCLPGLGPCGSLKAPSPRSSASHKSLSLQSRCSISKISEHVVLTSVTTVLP
Procedure: (§1) Determination of the effect of the compounds of the present invention on calcium current in cells stably expressing OX1 and OX2 receptors 1. Experimental objective: The inhibitory effect of the compounds on calcium current activity in CHO-K1/human OX1R and CHO-K1/human OX2R cells was detected. 2. […] 3. […] The IC50 of the positive compounds and test compounds was determined. 4. Experimental data processing method: FLIPR Tetra was used to read and collect the fluorescence signal value (RFU). […] 5.

[2] = target: T2, human OX2R (Homo sapiens, UniProt O43614); experiment: Calcium current (FLIPR) in cells stably expressing OX2 receptor; type: cell-based; settings: for IC50: CHO-K1/human OX2R cells, agonist OX-B at EC80, FLIPR Tetra; for Select fold: OX1R IC50 over OX2R IC50
T2 construct: expressed in transfected cells; host or cells: CHO-K1
T2 sequence (O43614 1-444): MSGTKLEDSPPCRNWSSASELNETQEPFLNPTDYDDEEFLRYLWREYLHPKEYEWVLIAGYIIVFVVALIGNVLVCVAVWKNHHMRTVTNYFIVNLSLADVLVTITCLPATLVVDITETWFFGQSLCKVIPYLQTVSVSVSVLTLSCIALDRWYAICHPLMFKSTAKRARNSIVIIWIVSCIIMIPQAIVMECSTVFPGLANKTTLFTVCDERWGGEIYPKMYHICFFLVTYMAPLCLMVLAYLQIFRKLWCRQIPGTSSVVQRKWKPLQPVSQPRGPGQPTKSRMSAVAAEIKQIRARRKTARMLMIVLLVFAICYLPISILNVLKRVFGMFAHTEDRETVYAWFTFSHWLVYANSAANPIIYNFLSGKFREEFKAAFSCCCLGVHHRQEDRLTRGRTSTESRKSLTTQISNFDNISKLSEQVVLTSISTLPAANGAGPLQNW
Procedure: as §1

[3] = in vivo; settings: male, SD, rat, po, 5 mg/kg
Procedure: SD rats were used as test animals to study the pharmacokinetic behaviour of the compounds of the present invention in rat (plasma) after oral administration at a dose of 5 mg/kg.
The example compound of the present invention, made in house.
Oral administration drug preparation: 20%HP-β-CD in Water
HP-β-CD powder (20 g) was weighed and dissolved in purified water (100 mL), and the mixture was homogeneously mixed by vortex and subjected to ultrasound treatment to afford a clear solution.
The example compound was weighed and added to a 20 mL glass bottle, the solution was added and the mixture was subjected to ultrasound treatment for 10 minutes to afford a colourless clear solution with a concentration of 0.5 mg/mL.
The brain tissues were rinsed with pre-cooled PBS, wiped dry, weighed, and stored at -80°C.
• 1) Acetonitrile (160 µL) was added to plasma sample (40 µL) for precipitation, and the mixture was mixed and centrifuged at 3500 × g for 5 to 20 minutes. • 2) The treated supernatant solution was taken and subjected to LC/MS/MS to analyse the concentrations of the test compounds. LC/MS/MS analysis instrument: AB Sciex API 4000 Qtrap.
• Liquid phase conditions: Shimadzu LC-20AD pump • Chromatographic column: Agilent ZORBAX XDB-C18 (50×2.1 mm, 3.5 µm) mobile phase: liquid A: 0.1% aqueous formic acid solution, liquid B: acetonitrile • Flow rate: 0.4 mL/min • Elution time: 0-4.0 min, the eluent is as follows:
The main pharmacokinetic parameters were calculated using WinNonlin 6.1.

[4] = Solid stability experiment (related substances by HPLC); type: physicochemical
Procedure: The compound physical and chemical stability at high temperature of 60°C, high humidity of 92.5% RH and both high temperature of 50°C and high humidity of 75% RH of the free base crystal form I and the free base crystal form II were investigated to provide a basis for the storage of the compounds.
About 2 mg of the free base crystal form I and the free base crystal form II were taken respectively, and changes of related substances in the crystal forms at high temperature of 60°C, high humidity of 92.5% RH, and both high temperature of 50°C and high humidity of 75%RH for 7 days and 14 days were investigated. The changes of related substances were calculated by HPLC and the chromatographic peak area normalization method.

[5] = Hygroscopicity experiment; type: physicochemical
Procedure: The hygroscopicity of the crystal form I and the crystal form II of compound 9 were investigated under different relative humidity to provide a basis for the storage of the compounds.
The crystal form I and the crystal form II of compound 9 were placed in saturated water vapor at different relative humidities to allow the compound to reach a dynamic equilibrium with the water vapor, and the percentage of weight gain after moisture absorption of the compound after equilibrium was calculated.

[6] = Solubility experiments in different media (thermodynamic solubility); type: physicochemical; settings: thermodynamic from solid
From the text: The solubility of the free base crystal form I and the free base crystal form II in media such as pH 1.0-8.0 USP buffer, artificial simulated gastric fluid (FaSSGF), fasted-state artificial simulated intestinal fluid (FaSSIF), fed-state artificial simulated intestinal fluid (FeSSIF) and pure water was compared to provide a basis for the evaluation of drugability.

[7] = PK studies in animals of the free base crystal forms; type: in vivo; settings: SD rats, plasma; for MRT inf: read-out: MRT 0-∞
Procedure: The pharmacokinetic of the free base crystal form after a single intravenous administration was studied, and the bioavailability of the free base crystal form I and the free base crystal form II after oral administration were calculated.
The free base crystal form I was suspended with 0.5% CMCC-Na aqueous solution, and the free base crystal form […] aqueous solution. After uniformity, the suspensions were administered intragastrically to rats in triplicate at a dosage of 5 mg/kg (30 mg/kg for suspension) for the free base crystal form I and a dosage of 30 mg/kg (suspension) for the free base crystal form II. The free base crystal form I was dissolved with 20% HP-β-CD aqueous solution to obtain a clear solution, and the clear solution was filtered through a filter membrane. The filtered solution was administered via injection to rats in triplicate.

[8] = Room temperature, 92.5%RH, 7 days
[9] = Room temperature, 92.5%RH, 14 days
[10] = Sprague-Dawley (SD), rat, 2 mg/kg, IV, 2MPK, 20%HP-B-CD solution
[11] = Sprague-Dawley (SD), rat, iv, 2 mg/kg, 2MPK, 20%HP-B-CD solution
[12] = Sprague-Dawley (SD), rat, po, 5 mg/kg, 5MPK, 0.5%CMC-Na
[13] = Sprague-Dawley (SD), rat, po, 30 mg/kg, 30MPK, 0.5%CMC-Na suspension

SMILES: Cc1nc(N2C[C@H]3CN(C(=O)c4ccc(F)cc4-n4nccn4)C[C@H]3C2)nc(C(C)(C)O)c1F [Compound 10, (4-fluoro-2-(2H-1,2,3-triazol-2-yl)phenyl)((cis)-5-(5-fluoro-4-(2-hydroxypropan-2-yl)-6-methylpyrimidin-2-yl)hexahydropyrrolo [3,4-c]pyrrol-2(1H)-yl)methanone]
- IC50 [1]: 1200 nM
- IC50 [2]: 25.2 nM
- Select fold [2]: 48

SMILES: Cc1nc(N2C[C@H]3CN(C(=O)c4c(F)cccc4-c4ccccn4)C[C@H]3C2)nc(C(C)(C)O)c1F [Compound 12, ((3aR,6aS)-5-(5-fluoro-4-(2-hydroxypropan-2-yl)-6-methylpyrimidin-2-yl)hexahydropyrrolo[3,4-c]pyrrol-2(1H)-yl)(2-fluoro-6-(pyridin-2-yl)phenyl)methanone]
- IC50 [1]: 263 nM
- IC50 [2]: 7.26 nM
- Select fold [2]: 36
- AUC(0-inf) [3]: 335 ng·h/mL
- Cmax [3]: 420 ng/mL
- Tmax [3]: 0.5 h

SMILES: CC(C)(O)c1nc(N2C[C@H]3CN(C(=O)c4c(F)cccc4-c4ncccn4)C[C@H]3C2)ncc1F [free base crystal form I, ((3aR,6aS)-5-(5-fluoro-4-(2-hydroxyprop-2-yl)pyrimidin-2-yl)hexahydropyrrolo [3,4-c]pyrrol-2(1H)-yl)(2-fluoro-6-(pyrimidin-2-yl)phenyl)methanone]
- % Increase in total impurity ([4]; 50°C, 75%RH, 7 days): <0.1%
- % Maximum increase in single impurity ([4]; 50°C, 75%RH, 7 days): <0.1%
- % Increase in total impurity ([4]; 50°C, 75%RH, 14 days): <0.1%
- % Maximum increase in single impurity ([4]; 50°C, 75%RH, 14 days): <0.1%
- % Increase in total impurity ([4]; 60°C, 7 days): <0.1%
- % Maximum increase in single impurity ([4]; 60°C, 7 days): <0.1%
- % Increase in total impurity ([4]; 60°C, 14 days): <0.1%
- % Maximum increase in single impurity ([4]; 60°C, 14 days): <0.1%
- % Increase in total impurity [4, 8]: <0.1%
- % Maximum increase in single impurity [4, 8]: <0.1%
- % Increase in total impurity [4, 9]: <0.1%
- % Maximum increase in single impurity [4, 9]: <0.1%
- change in the XRPD pattern (crystal form transformation) ([5]; after 2 cycles of moisture absorption and desorption at 0%-95% relative humidity): no change in the XRPD pattern
- weight gain after moisture absorption ([5]; at 80%RH): about 0.3263%
- solubility at 2 h ([6]; FaSSCoF, 37 °C, fassgf or other biorelevant, FaSSCoF, read-out: Solubility of free base crystal form I): 118 µg/mL (≈ 253 µM)
- solubility at 2 h ([6]; FaSSGF (artificial simulated gastric fluid), 37 °C, fassgf or other biorelevant, FaSSGF, read-out: Solubility of free base crystal form I): 269 µg/mL (≈ 577 µM)
- solubility at 2 h ([6]; FaSSIF, 37 °C, fassif, FaSSIF, read-out: Solubility of free base crystal form I): 247 µg/mL (≈ 529 µM)
- solubility at 2 h ([6]; FeSSCoF, 37 °C, fassgf or other biorelevant, FeSSCoF, read-out: Solubility of free base crystal form I): 182 µg/mL (≈ 390 µM)
- solubility at 2 h ([6]; FeSSIF, 37 °C, fessif, FeSSIF, read-out: Solubility of free base crystal form I): 311 µg/mL (≈ 667 µM)
- solubility at 2 h ([6]; USP buffer pH 1.0, 37 °C, pH 1, simulated gastric fluid, pH 1.0, read-out: Solubility of free base crystal form I): 799 µg/mL (≈ 1710 µM)
- solubility at 2 h ([6]; USP buffer pH 2.0, 37 °C, pH 2, simulated gastric fluid, pH 2.0, read-out: Solubility of free base crystal form I): 141 µg/mL (≈ 302 µM)
- solubility at 2 h ([6]; USP buffer pH 3.0, 37 °C, pH 3, aqueous buffer, pH 3.0, read-out: Solubility of free base crystal form I): 87 µg/mL (≈ 186 µM)
- solubility at 2 h ([6]; USP buffer pH 4.5, 37 °C, pH 4.5, aqueous buffer, pH 4.5, read-out: Solubility of free base crystal form I): 80 µg/mL (≈ 171 µM)
- solubility at 2 h ([6]; USP buffer pH 6.8, 37 °C, pH 6.8, aqueous buffer, pH 6.8, read-out: Solubility of free base crystal form I): 81 µg/mL (≈ 174 µM)
- solubility at 2 h ([6]; USP buffer, 37 °C, pH 4, aqueous buffer, pH 4.0, read-out: Solubility of free base crystal form I): 73 µg/mL (≈ 156 µM)
- solubility at 2 h ([6]; USP buffer, 37 °C, pH 5, aqueous buffer, pH 5.0, read-out: Solubility of free base crystal form I): 88 µg/mL (≈ 189 µM)
- solubility at 2 h ([6]; USP buffer, 37 °C, pH 6, aqueous buffer, pH 6.0, read-out: Solubility of free base crystal form I): 70 µg/mL (≈ 150 µM)
- solubility at 2 h ([6]; USP buffer, 37 °C, pH 7, aqueous buffer, pH 7.0, read-out: Solubility of free base crystal form I): 75 µg/mL (≈ 161 µM)
- solubility at 2 h ([6]; USP buffer, 37 °C, pH 8, aqueous buffer, pH 8.0, read-out: Solubility of free base crystal form I): 58 µg/mL (≈ 124 µM)
- solubility at 2 h ([6]; water, 37 °C, water, H2O, read-out: Solubility of free base crystal form I): 91 µg/mL (≈ 195 µM)
- Tmax ([7]; PO, 30MPK, 0.5%CMC-Na suspension): 2.0 h
- C0 [7, 10]: 2910 ng/mL
- clearance [7, 10]: 15 mL/min/kg
- Vd ([7]; Sprague-Dawley (SD), rat, 2 mg/kg, IV, 2MPK, 20%HP-B-CD solution, read-out: Vss): 0.8 L/kg
- Tmax ([7]; Sprague-Dawley (SD), rat, 5 mg/kg, PO, 5MPK, 0.5%CMC-Na, read-out: tmax): 0.5 h
- AUC(0-inf) [7, 11]: 2280 ng·h/mL
- AUC(0-t) [7, 11]: 2280 ng·h/mL
- half-life [7, 11]: 0.9 h
- MRT inf ([7]; Sprague-Dawley (SD), rat, iv, 2 mg/kg, IV, 2MPK, 20%HP-B-CD solution): 0.9 h
- AUC(0-inf) [7, 12]: 2410 ng·h/mL
- AUC(0-t) [7, 12]: 2390 ng·h/mL
- Cmax [7, 12]: 787 ng/mL
- bioavailability [7, 12]: 7%
- half-life [7, 12]: 1.2 h
- MRT inf ([7]; Sprague-Dawley (SD), rat, po, 5 mg/kg, PO, 5MPK, 0.5%CMC-Na): 2.2 h
- AUC(0-inf) [7, 13]: 31000 ng·h/mL
- AUC(0-t) [7, 13]: 28400 ng·h/mL
- Cmax [7, 13]: 6010 ng/mL
- bioavailability [7, 13]: 90.4%
- half-life [7, 13]: 1.9 h
- MRT inf ([7]; Sprague-Dawley (SD), rat, po, 30 mg/kg, PO, 30MPK, 0.5%CMC-Na suspension): 3.8 h
